{"source": "patent US8278469B2", "about": "“17-hydroxy-17-pentafluoroethyl-estra-4,9(10)-dien-11-aryl derivatives, method of production thereof and use thereof for the treatment of diseases” (Bayer Pharma Aktiengesellschaft, priority 2009, dated 2012)", "key": {"[1]": {"biological_target": "T1, human progesterone receptor A (PR-A) (Homo sapiens, UniProt P06401)", "T1 construct": "expressed in transfected cells; host or cells: SK-N-MC human neuroblastoma cells, stably transfected with pRChPR-A-neo and pMMTV-LUC", "T1 sequence (P06401 1-769 isoform P06401-2)": "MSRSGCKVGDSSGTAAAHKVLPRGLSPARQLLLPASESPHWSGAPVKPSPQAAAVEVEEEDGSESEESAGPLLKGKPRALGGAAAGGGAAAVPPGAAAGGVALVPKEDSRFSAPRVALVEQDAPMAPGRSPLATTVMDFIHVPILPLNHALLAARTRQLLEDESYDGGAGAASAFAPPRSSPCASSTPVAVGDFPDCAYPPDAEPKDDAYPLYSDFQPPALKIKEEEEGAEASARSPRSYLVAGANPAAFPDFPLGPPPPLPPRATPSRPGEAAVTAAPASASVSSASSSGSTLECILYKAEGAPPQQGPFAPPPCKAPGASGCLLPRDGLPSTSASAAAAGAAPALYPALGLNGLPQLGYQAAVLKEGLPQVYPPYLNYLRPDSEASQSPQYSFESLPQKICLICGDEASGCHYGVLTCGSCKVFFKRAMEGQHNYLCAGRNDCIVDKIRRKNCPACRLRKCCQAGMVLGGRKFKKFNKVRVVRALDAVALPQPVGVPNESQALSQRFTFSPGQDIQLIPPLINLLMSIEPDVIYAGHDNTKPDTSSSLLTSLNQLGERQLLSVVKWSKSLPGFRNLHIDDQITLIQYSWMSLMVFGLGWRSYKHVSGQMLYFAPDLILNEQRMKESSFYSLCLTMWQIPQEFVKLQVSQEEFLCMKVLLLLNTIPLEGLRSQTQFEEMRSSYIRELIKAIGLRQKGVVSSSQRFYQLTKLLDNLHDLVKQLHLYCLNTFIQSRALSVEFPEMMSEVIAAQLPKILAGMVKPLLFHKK", "test": "Progesterone receptor-antagonistic action in stable transfectants of SK-N-MC cells with human PR-A and MTV-LUC reporter", "format": "cell-based", "procedure": "Progesterone Receptor-Antagonistic Action in Stable Transfectants of Human Neuroblastoma Cells (SK-N-MC Cells) with the Human Progesterone A or Progesterone B Receptor and an MTV-LUC Reporter Construct\nSK-N-MC cells (human neuroblastoma cells), which have been stably transfected with plasmids, which express the human progesterone receptor B (pRChPR-B-neo) or the human progesterone receptor A (pRChPR-A-neo) and a reporter construct (pMMTV-LUC), were incubated for 24 hours either in the absence (negative control) or in the presence of increasing amounts of the respective test compound (0.01 nmol/l, 0.1 nmol/l, 1 nmol/l, 10 nmol/l, 100 nmol/l and 1 μmol/l), in order to determine the agonistic efficacy. As positive control of reporter gene induction, the cells were treated with the synthetic gestagen promegestone (0.01 nmol/l, 0.1 nmol/l, 1 nmol/l, 10 nmol/l, 100 nmol/l and 1 μmol/l). For determination of the antagonistic activity, the cells were treated with 0.1 nmol/l promegestone and additionally with increasing amounts of the respective test compound (0.01 nmol/l, 0.1 nmol/l, 1 nmol/l, 10 nmol/l, 100 nmol/l and 1 μmol/l). The activity of the LUC reporter gene (LUC=luciferase) was determined in the cell lysates and was measured as RLU (relative light units). All measured values are given as percentage efficacy and as EC50 or IC50 concentrations.\n11β-(4-Acetylphenyl)-20,20,21,21,21-pentafluoro-17-hydroxy-19-nor-17α-pregna-4,9-dien-3-one and 20,20,21,21,21-pentafluoro-17-hydroxy-11β-[4-(hydroxyacetyl)phenyl]-19-nor-17α-pregna-4,9-dien-3-one, very potent and therefore preferred examples from WO98/34947 and WO2008/058767, were tested as comparative compounds along with the test compound."}, "[2]": {"test": "Chemical stability against temperature, light and oxidative stress", "format": "physicochemical", "details": "compared with the analogue with an alkanoyl or hydroxyalkanoyl group"}, "cardiovascular system": {"system": "cardiovascular system", "test": "Action on the cardiovascular system (incl. ECG) of anaesthetized beagle dogs", "format": "in vivo", "details": "anaesthetized female beagle dogs, i.v. 0.1; 0.33 and 1 mg/kg, in comparison with the control", "procedure": "Investigation of the Action on the Cardiovascular System (Incl. ECG) of Anaesthetized Beagle Dogs\n(11β,17β)-17-Hydroxy-11-[4-(methylsulphonyl)phenyl]-17-(pentafluoroethyl)estra-4,9-dien-3-one, dissolved in a mixture of PEG 400 and HP-β-CD (60% PEG 400, 40% HP-β-CD 30%), was administered intravenously to anaesthetized female beagle dogs. The body weight of the dogs was >9 kg. 3 dogs were treated per group and additionally 3 dogs in the control group. 0.1; 0.33 and 1 mg/kg of the substance was administered in 3 consecutive infusions, in each case over a period of 30 minutes. The maximum amount of vehicle was 0.4 ml per kg for 30 minutes. Blood samples were taken from the animals at various time points. The highest plasma level (average for all 3 animals) was 1650 ng/ml at the end of the third infusion."}}, "data": [{"smiles": "C[C@]12C[C@H](c3ccc(S(C)(=O)=O)cc3)C3=C4CCC(=O)C=C4CC[C@H]3[C@@H]1CC[C@@]2(O)C(F)(F)C(F)(F)F", "note": "[Example 4, (11β,17β)-17-Hydroxy-11-[4-(methylsulphonyl)phenyl]-17-(pentafluoroethyl)estra-4,9-dien-3-one]", "values": [{"measurement": "Emax", "setting": "[1]; SK-N-MC, 24 h, read-out: Progesterone receptor A (PR-A) Efficacy", "value": 100, "unit": "%"}, {"measurement": "IC50", "setting": "[1]; antagonistic activity against 0.1 nmol/l promegestone, SK-N-MC cells, 24 hours, LUC reporter, read-out: Progesterone receptor A (PR-A) Potency IC50", "value": 0.096, "unit": "nM"}, {"measurement": "Oxidation sensitivity", "setting": "[2]", "value": "surprisingly low oxidation sensitivity"}, {"measurement": "Stability under the influence of UV light", "setting": "[2]", "value": "surprisingly high stability"}, {"measurement": "Stability under thermal load", "setting": "[2]", "value": "surprisingly high stability"}, {"measurement": "Effects on the cardiovascular system (pulmonary artery pressure, systemic arterial blood pressure, heart rate, ECG)", "setting": "cardiovascular system", "value": "no biologically relevant effects on the cardiovascular system"}]}]}
